The target in one experiment is Mer tyrosine kinase (Homo sapiens (Human), UniProt Q12866). As to the kind of experiment: Evaluation of activity against Mer tyrosine kinase. Type of experiment: biochemical.
The target of a further experiment is Tyro3 tyrosine kinase (Homo sapiens (Human), UniProt Q06418). As to the kind of experiment: Evaluation of activity against Tyro3 tyrosine kinase. The class given is biochemical.

What is called IC50 is the concentration that gives 50% inhibition. Read a low IC50 as higher potency.

Sequence of Tyro3 tyrosine kinase (Q06418 41-890): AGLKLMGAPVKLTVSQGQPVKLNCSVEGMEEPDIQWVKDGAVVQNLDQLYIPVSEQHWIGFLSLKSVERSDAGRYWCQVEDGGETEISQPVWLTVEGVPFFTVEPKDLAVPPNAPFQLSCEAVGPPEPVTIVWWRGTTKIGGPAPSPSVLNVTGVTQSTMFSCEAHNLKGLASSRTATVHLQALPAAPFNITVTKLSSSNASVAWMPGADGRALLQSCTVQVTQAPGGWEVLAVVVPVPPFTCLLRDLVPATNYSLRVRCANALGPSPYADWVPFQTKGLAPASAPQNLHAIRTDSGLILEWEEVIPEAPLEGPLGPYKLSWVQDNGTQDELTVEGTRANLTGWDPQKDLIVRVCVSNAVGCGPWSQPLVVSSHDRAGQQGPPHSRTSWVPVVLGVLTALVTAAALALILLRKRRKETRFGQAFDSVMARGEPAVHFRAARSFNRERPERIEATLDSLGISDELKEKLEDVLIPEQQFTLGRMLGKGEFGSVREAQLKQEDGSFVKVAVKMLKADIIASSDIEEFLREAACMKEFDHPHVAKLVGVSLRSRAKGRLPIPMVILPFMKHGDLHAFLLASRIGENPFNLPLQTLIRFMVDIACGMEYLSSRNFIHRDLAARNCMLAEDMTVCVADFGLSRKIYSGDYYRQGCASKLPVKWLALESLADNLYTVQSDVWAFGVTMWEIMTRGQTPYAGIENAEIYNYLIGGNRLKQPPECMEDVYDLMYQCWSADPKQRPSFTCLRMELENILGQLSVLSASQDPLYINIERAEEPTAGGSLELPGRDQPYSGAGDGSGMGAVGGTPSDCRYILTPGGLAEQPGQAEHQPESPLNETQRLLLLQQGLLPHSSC
Sequence of Mer tyrosine kinase (Q12866 21-999): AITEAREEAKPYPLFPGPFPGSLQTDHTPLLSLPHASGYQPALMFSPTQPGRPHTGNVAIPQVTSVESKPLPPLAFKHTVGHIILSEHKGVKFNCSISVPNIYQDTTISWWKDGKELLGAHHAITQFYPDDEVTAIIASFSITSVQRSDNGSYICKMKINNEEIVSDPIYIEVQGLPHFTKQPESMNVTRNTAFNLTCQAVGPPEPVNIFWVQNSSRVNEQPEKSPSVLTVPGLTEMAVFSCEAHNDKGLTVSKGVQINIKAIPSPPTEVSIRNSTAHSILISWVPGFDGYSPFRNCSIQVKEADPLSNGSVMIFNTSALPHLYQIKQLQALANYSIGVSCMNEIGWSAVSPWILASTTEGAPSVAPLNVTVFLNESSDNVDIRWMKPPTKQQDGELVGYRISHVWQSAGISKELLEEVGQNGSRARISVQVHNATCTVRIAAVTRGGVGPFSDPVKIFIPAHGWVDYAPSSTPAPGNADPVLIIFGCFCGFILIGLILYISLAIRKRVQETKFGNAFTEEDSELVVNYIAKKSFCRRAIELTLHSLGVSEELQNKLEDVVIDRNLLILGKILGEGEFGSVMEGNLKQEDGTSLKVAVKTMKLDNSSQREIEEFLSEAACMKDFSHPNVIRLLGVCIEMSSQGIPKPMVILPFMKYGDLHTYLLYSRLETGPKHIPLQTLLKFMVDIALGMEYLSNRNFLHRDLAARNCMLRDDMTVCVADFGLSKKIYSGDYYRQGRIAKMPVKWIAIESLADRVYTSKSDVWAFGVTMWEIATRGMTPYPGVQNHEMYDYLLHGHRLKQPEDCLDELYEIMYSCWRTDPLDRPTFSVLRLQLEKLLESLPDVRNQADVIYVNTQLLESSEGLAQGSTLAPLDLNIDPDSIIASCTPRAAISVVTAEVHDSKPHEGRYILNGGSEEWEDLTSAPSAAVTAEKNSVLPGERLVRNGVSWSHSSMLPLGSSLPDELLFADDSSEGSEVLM

Consider `CCC[C@H](C)Nc1ncc2c(C3CCN(C(=O)c4cncs4)CC3)cn([C@H]3CC[C@H](O)CC3)c2n1` [compound 59, (4-(7-((1R,4S)-4-hydroxycyclohexyl)-2-(((S)-pentan-2-yl)amino)-7H-pyrrolo[2,3-d]pyrimidin-5-yl)piperidin-1-yl)(thiazol-5-yl)methanone], for which the results for the IC50 at Mer tyrosine kinase and against Tyro3 tyrosine kinase were less than 10 nM and 10 to 100 nM, respectively.

Values taken from patent publication US11001586B2, “Alkyl pyrrolopyrimidine analogs and methods of making and using same” (The University of North Carolina at Chapel Hill, priority 2016, dated 2021).
